Data taken from publication PMC10892041, “Vanadium Complexes with Thioanilide Derivatives of Amino Acids: Inhibition of Human Phosphatases and Specificity in Various Cell Models of Metabolic Disturbances” (Pharmaceuticals, 2024).
One block for each compound: values may come before it.

Legend:
[1] = molecular target: T1, PTP1B (Homo sapiens, UniProt P18031); experiment: Inhibition of human recombinant tyrosine phosphatase PTP1B (DiFMUP fluorescence); format: biochemical; details: for Inhibition of PTP1B, percentage of inhibition of the control: 1 µM, control solvent only, SD did not exceed 6%
T1 construct: purchased Sigma-Aldrich
T1 sequence (P18031 1-435): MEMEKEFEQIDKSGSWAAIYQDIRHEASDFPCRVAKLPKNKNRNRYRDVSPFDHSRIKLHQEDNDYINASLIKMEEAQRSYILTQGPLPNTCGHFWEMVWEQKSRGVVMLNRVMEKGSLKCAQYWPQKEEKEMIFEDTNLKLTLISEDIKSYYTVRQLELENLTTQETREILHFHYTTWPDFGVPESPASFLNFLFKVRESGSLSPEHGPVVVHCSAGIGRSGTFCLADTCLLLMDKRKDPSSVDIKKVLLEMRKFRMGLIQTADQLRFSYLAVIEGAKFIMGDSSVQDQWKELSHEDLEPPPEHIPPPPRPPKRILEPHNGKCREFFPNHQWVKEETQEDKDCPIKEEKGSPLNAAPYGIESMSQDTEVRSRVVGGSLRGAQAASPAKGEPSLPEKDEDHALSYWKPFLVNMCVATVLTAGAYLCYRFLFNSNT
Description: (§1) To determine the ability of the tested compounds for inhibition tyrosine phosphatases, human recombinant proteins were used (Sigma-Aldrich). The reactions were performed in black opaque 384-well microplates (PerkinElmer, Waltham, MA, USA). An equal volume of phosphatase solution in a reaction buffer (25 mM of 3-(N-morpholino)propanesulfonic acid (MOPS), 50 mM NaCl, 1 mM dithiothreitol (DTT), and 0.05% Tween-20 (pH 7.0)) was added to the solution of the tested compound on microplate. These solutions were dispensed using an automated injector. The following final concentrations of the tested phosphatases were used: PTP1B 50 ng/mL, SHP1 400 ng/mL, SHP2 50 ng/mL, LAR 5 ng/mL, and PTPRA 100 ng/mL. After 10 min, a solution of phosphate 6,8-difluoro-4-methyl (DiFMUP; Thermo Fisher Scientific) was added until its final concentration was 0.1 mM. Samples were incubated for 20 miN at 23 °C, and then the measurements of fluorescence intensity (excitation 355 and emission […]) were performed on a multifunctional plate reader POLARstar Omega (BMG Labtech, Ortenberg, Germany). Assays were performed in triplicate. For the screening assays, the final concentration of the tested compounds was 1 µM. The results were expressed as percent inhibition of untreated control (enzyme with vehicle only) for the screening tests. […] IC50 were calculated using GraphPad Prism version 6.0 software (GraphPad Software, Boston, MA, USA).

[2] = molecular target: T2, SHP1 (Homo sapiens, UniProt P29350); experiment: Inhibition of human recombinant tyrosine phosphatase SHP1 (DiFMUP fluorescence); format: biochemical; details: for Inhibition of SHP1, percentage of inhibition of the control: 1 µM, control solvent only, SD did not exceed 6%
T2 construct: purchased Sigma-Aldrich
T2 sequence (P29350 whole entry): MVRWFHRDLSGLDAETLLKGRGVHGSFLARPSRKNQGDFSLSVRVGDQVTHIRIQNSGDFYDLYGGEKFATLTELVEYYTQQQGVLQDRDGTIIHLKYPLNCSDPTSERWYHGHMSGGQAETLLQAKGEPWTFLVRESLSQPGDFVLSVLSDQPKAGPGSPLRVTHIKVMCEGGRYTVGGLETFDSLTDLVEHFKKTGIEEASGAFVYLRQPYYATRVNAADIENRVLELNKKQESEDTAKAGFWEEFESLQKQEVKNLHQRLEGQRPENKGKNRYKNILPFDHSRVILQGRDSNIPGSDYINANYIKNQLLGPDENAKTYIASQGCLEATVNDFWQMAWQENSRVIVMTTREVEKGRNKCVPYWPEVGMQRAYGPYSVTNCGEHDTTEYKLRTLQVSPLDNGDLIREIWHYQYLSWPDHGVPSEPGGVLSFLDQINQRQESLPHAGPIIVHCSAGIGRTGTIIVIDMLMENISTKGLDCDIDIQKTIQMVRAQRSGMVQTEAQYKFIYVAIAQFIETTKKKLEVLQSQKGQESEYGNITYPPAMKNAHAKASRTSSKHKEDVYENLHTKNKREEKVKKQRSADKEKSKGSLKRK
Description: as §1

[3] = system: myocytes C2C12; design: method as in doi:10.1016/j.poly.2020.114589; details: 50 µM; previously published by the authors; cited from earlier work
[4] = system: hepatocytes HepG2; experiment: Transport of [14C]-deoxy-D-glucose into insulin-resistant hepatocytes (TNF or oleic acid); format: cell-based, human; details: 10 µM; p ≤ 0.05
Description: After 24 h incubation, the tested complexes were added. After 2 h incubation at 37 °C in 5% CO2, the medium was changed to low-glucose medium (1000 mg/L), and the tested complexes were added again, with further incubation for 4 h being conducted.
For cells proceeded as above, 2-deoxy-D-[U-14C]-glucose (250–350 mCi/mmol, NEC720A, PerkinElmer) solution in KRB with a total activity of 0.03 mCi was added to each well. […] Non-specific radioactivity was subtracted from each result (cpm). Two independent experiments with triplicates were conducted.
Next, the compounds in fresh medium were added, further incubation was carried out for 24 h, and the scintillation proximity assay for the uptake of radiolabeled 2-deoxy-D-[U-14C]-glucose was conducted as described in the section above.

[5] = molecular target: T3, LAR (Homo sapiens, UniProt P10586); experiment: Inhibition of human recombinant tyrosine phosphatase LAR (DiFMUP fluorescence); format: biochemical; details: for Inhibition of LAR, percentage of inhibition of the control: 1 µM, control solvent only, SD did not exceed 6%
T3 sequence (P10586 1352-1607 limits assumed): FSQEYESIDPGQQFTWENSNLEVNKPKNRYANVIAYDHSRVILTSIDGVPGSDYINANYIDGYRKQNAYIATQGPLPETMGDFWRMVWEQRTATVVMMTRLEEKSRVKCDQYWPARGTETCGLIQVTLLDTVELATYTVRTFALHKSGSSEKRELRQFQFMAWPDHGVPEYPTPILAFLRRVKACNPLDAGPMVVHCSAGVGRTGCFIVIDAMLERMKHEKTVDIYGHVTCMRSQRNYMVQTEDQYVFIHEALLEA
Description: as §1

[6] = molecular target: T4, SHP2 (Homo sapiens, UniProt Q06124); experiment: Inhibition of human recombinant tyrosine phosphatase SHP2 (DiFMUP fluorescence); format: biochemical; details: for Inhibition of SHP2, percentage of inhibition of the control: 1 µM, control solvent only, SD did not exceed 6%
T4 construct: purchased Sigma-Aldrich
T4 sequence (Q06124 1-593): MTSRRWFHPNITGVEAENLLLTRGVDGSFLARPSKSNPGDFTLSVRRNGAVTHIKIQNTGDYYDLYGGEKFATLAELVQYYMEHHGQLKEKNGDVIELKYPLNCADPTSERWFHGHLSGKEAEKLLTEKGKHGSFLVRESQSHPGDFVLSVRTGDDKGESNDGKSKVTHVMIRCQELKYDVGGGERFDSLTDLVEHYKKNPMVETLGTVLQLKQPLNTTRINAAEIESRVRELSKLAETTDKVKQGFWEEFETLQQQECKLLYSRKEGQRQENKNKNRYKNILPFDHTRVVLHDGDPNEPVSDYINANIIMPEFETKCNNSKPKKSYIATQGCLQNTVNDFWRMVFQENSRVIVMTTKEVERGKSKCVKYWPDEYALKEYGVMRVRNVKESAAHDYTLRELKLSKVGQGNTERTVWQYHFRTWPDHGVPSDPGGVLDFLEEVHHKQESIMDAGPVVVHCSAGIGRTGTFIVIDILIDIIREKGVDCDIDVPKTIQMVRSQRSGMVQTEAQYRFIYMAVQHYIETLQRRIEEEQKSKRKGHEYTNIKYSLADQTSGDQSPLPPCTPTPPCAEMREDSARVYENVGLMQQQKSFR
Description: as §1

[7] = Viability of myocytes C2C12 after 24 h incubation (resazurin-based reagent); details: mouse, C2C12 myocytes
Description: (§2) Simultaneously with glucose consumption tests, the viability of myocytes C2C12 was examined due to their prolonged 24 h incubation with vanadium complexes.
(§3) Prolonged incubation of the cells with vanadium complexes, as was the case during the study of the effect on glucose consumption, more closely corresponds to the actual conditions of clinical use, also allowing for the identification of possible cytotoxic effects. […] A Resazurin-based reagent is reduced proportionally to the metabolic activity of cells as a result of the transference of electrons from NADPH+H^+, the amount of which strictly depends on glucose metabolism.

[8] = system: myocytes C2C12; experiment: as above; details: 50 µM
Description: as §2, §3

[9] = system: myocytes C2C12; experiment: Glucose consumption (utilization) by myocytes C2C12; format: cell-based, mouse; details: 50 µM (highest tested concentration); 24 h
Description: The myocyte C2C12 cell line (ATCC CRL-1772), a subclone of myoblasts from mouse muscles, was cultured according to standard protocol in DMEM supplemented with 10% fetal calf serum, 100 IU/ml penicillin, and […] streptomycin at 37 °C in 5% CO2. Cells were pleated on a 96-well microplate and after reach confluence were differentiated in medium with 2% horse serum. Differentiation medium was changed every 72 h.
Differentiated myocytes C2C12 were used after 8 days of differentiation. The culture medium was changed for medium with 0.2% bovine serum albumin, 100 IU/mL penicillin, and 100 µg/mL streptomycin, and after 2 hours of incubation, the medium was changed to fresh medium containing the tested compounds. […]
Glucose concentration was determined based on enzymatic reaction with glucose oxidase and fluorometrically detection reaction end product using an AmplexRed Glucose/Glucose Oxidase Kit (Thermo Fisher Scientific) according to the manufacturer’s protocol. […] Fluorescence signal was measured at excitation of 530 nm and emission of 580 nm using a multimodal microplate reader POLARStar Omega (BMG Labtech), and glucose concentration in samples was calculated in MARS Data Analysis Software version 3.02.R2 (BMG Labtech) based on glucose standards. […] The final results were expressed as the percent of controls containing cells and solvent only.

[10] = system: hepatocytes HepG2; details: 50 µM
Description: Experiments on the inhibition of hepatic gluconeogenesis in HepG2 hepatocytes by the vanadium complexes were carried out based on a previous description with some modifications [143]. Hepatocytes HepG2 in culture medium (as indicated above) were seeded on a half-area 96 microplate at the amount of 50,000 per well. After 16–24 h, cells were washed with PBS three times and one time with experimental medium (DMEM without glucose with 0.1% BSA, 2 µM L-glutamine, 15 mM HEPES, 1 mM sodium pyruvate, 10 mM calcium lactate, 100 IU/mL penicillin, and 100 mg/mL streptomycin). Cells were incubated in this medium for 3 h at 37 °C in 5% CO2, and the next medium was changed to the experimental medium with additional gluconeogenesis inductors: 10 µM dexamethasone, 100 µM 8-bromoadenosine 3′,5′-cyclic monophosphate sodium salt (8-Br-cAMP), and 500 µM 3-isobutyl-1-methylxanthine (IBMX). After adding the test compounds, the cells were incubated for 3 h at 37 °C in a 5% CO2 microplate, and then the supernatant was collected for glucose assay (as described in Section 4.2.6). Glucose synthesis was calculated as glucose concentration differences between experimental medium without cells and medium with cells after incubation with the tested compound. The final results were expressed as the percent of inhibition of glucose synthesis by cells incubated with solvent only.

[11] = molecular target: PP2A (Homo sapiens, UniProt P67775); experiment: Inhibition of human recombinant non-tyrosine phosphatase PP2A (DiFMUP); format: biochemical
Chain of PP2A (P67775 whole entry): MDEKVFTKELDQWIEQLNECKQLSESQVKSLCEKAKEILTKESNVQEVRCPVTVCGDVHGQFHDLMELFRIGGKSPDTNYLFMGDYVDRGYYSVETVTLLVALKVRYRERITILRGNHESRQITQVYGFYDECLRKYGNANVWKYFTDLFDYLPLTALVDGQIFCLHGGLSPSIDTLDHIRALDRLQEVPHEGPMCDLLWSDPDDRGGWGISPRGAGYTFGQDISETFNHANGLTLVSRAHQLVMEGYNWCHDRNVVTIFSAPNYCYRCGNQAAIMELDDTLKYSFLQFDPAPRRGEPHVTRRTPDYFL
Description: (§4) For the inhibition assay of non-tyrosine phosphatases, human recombinant proteins were used (Sigma-Aldrich). The reactions were performed in black opaque 384-well microplates (PerkinElmer). To the solution of the tested complexes, an equal volume of a test solution of phosphatase was added. CDC25A were diluted in reaction buffer to the final concentration of 400 ng/mL as for tyrosine phosphatases (described in the section above), and PPA2 (final 0.5 U/mL) was diluted in 50 mM Tris-HCl, 0.05% Tween-20, and 125 µg/mL protease-free bovine serum albumin (pH 7.0). These solutions were dispensed using an automated injector. After 10 min, a solution of phosphate 6,8-difluoro-4-methyl (DiFMUP; Thermo Fisher Scientific) was added for the PPA2 sample until the final concentration 0.1 mM. For CDC25A samples, 3-O-methylfluorescein phosphate for the final concentration of 0.2 mM was added. Samples were incubated for 180 min at 23 °C, and then the measurements of fluorescence intensity (excitation 355 and emission 560 nm) were performed on a multifunctional plate reader POLARstar Omega (BMG Labtech). Assays were performed in triplicate. The results were expressed as percent of inhibition of untreated control (enzyme with vehicle solvent only).

[12] = molecular target: T5, CDC25A (Homo sapiens, UniProt P30304); experiment: Inhibition of human recombinant non-tyrosine phosphatase CDC25A (3-O-methylfluorescein phosphate); format: biochemical
T5 construct: purchased Sigma-Aldrich
T5 sequence (P30304 1-524): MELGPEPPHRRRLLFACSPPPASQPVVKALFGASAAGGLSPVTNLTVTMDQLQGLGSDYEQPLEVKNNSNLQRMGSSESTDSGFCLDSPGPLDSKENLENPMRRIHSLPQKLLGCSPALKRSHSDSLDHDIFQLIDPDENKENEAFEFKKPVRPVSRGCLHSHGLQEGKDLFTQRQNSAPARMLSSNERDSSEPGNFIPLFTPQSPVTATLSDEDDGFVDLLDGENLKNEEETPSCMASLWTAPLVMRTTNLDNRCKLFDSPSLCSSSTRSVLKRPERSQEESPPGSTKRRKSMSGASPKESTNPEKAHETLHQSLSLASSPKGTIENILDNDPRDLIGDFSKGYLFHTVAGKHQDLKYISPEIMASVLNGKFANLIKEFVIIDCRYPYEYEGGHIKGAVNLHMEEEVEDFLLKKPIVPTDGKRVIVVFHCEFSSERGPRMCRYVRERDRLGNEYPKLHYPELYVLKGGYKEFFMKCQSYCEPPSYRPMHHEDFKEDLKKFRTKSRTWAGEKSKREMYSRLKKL
Description: as §4

[13] = system: hepatocytes HepG2; experiment: Inhibition of hepatic gluconeogenesis (glucose synthesis); details: known inhibitors of gluconeogenesis; concentration not given

Structure (SMILES): CN(CCOc1ccc(CC2SC(=O)NC2=O)cc1)c1ccccn1 (stereo not shown) [rosiglitazone, reference compound]
viability at 24 h, 50 µM [7]: 120 ± 7%

Structure (SMILES): NC(=O)c1ncn([C@@H]2O[C@H](CO)[C@@H](O)[C@H]2O)c1N [AICAR, 5-aminoimidazole-4-carboxamide riboside]
Inhibition of glucose synthesis by hepatocytes, experimental control compounds [13]: showed inhibition of glucose synthesis

More lines, main results first:

Inhibition of PTP1B, percentage of inhibition of the control [1]: 42%
Inhibition of SHP1, percentage of inhibition of the control [2]: 70%
Inhibition of LAR, percentage of inhibition of the control [5]: 39%
Inhibition of SHP2, percentage of inhibition of the control [6]: 74%
Structure (SMILES): O=C(NN=Cc1cc(Br)ccc1[O][V]1[O]C(c2cc3ccccc3cc2O)=NN=Cc2cc(Br)ccc2[O]1)c1cc2ccccc2cc1O [VC067, [V(L12)(HL12)]]
Transport of [14C]-deoxy-D-glucose into C2C12 myocytes, % of the control [3]: 199 ± 3 % of control
Reversal of decreased [14C]-deoxy-D-glucose transport, insulin resistance induced by oleic acid [4]: reversed the decrease

Inhibition of PTP1B, percentage of inhibition of the control [1]: 24%
Inhibition of SHP1, percentage of inhibition of the control [2]: 56%
Inhibition of LAR, percentage of inhibition of the control [5]: 18%
Inhibition of SHP2, percentage of inhibition of the control [6]: 57%
Structure (SMILES): COc1ccc(C(=O)NN=Cc2cc(Br)ccc2[O][V]2[O]C(c3ccc(OC)cc3)=NN=Cc3cc(Br)ccc3[O]2)cc1 [VC055, [V(L11)(HL11)]]
Cell viability of myocytes C2C12, % of the control [8]: 127 ± 5%
Glucose consumption by myocytes C2C12, % of the control [9]: No statistically significant effect

Inhibition of PTP1B, percentage of inhibition of the control [1]: 40%
Log IC50 ± SD PTP1B ([1]; logarithm of IC50): −5.69 ± 0.02
IC50 ([1]; read-out: IC50 PTP1B): 2030 nM
Inhibition of glucose synthesis (gluconeogenesis) in hepatocytes [10]: 79 ± 18%
IC50 [2]: 517 nM
Inhibition of SHP1, percentage of inhibition of the control [2]: 70%
Log IC50 ± SD SHP1 ([2]; logarithm of IC50): −6.29 ± 0.02
Inhibition of PP2A, percentage inhibition of control ± SD ([11]; 1 µM): 26 ± 12%
Inhibition of PP2A, percentage inhibition of control ± SD ([11]; 10 µM): 55 ± 15%
IC50 [5]: 619 nM
Inhibition of LAR, percentage of inhibition of the control [5]: 33%
IC50 [6]: 235 nM
Inhibition of SHP2, percentage of inhibition of the control [6]: 74%
Inhibition of CDC25A, percentage inhibition of control ± SD ([12]; 1 µM): 54 ± 3%
Inhibition of CDC25A, percentage inhibition of control ± SD ([12]; 10 µM): 62 ± 2%
Structure (SMILES): O=C(NN=Cc1cc(Br)ccc1[O-])c1ccc([N+](=O)[O-])cc1.O=[N+]([O-])c1ccc(C([O-])=NN=Cc2cc(Br)ccc2[O-])cc1.[V+3] [VC068, [V(L13)(HL13)]]
Transport of [14C]-deoxy-D-glucose into C2C12 myocytes, % of the control [3]: 218 ± 10 % of control
Reversal of decreased [14C]-deoxy-D-glucose transport, insulin resistance induced by TNF [4]: reversed the decrease
